# Results reported in PubChem BioAssay AID1963977 (Molecular Pharmacology Branch, DTP, NCI, 2024).
# Test system: 624824-186-R-J3-PDC multicell spheroids, viability
# Assay: Anticancer human tumor 624824-186-R-J3-PDC patient-derived colon adenocarcinoma cell line growth inhibition [PI3K]
# Conditions: for IC50: curve of first compound; for viability, T/C: stronger effect = lower value
# Source text: Combinatorial screen of targeted agents with the PI3K inhibitors inavolisib, alpelisib, duvelisib, and copanlisib in multi-cell type tumor spheroids
# A high-throughput screen of multi-cell type tumor spheroids was designed to identify active combinations of targeted small molecules and PI3K pathway inhibitors. Complex spheroids include a stromal component modeled by human endothelial cells (HUVEC) and fibroblasts modeled by human mesenchymal stem cells (MSCs). The concentration ranges selected for each drug and investigational agent were based upon clinically achievable concentrations if the clinical Cmax of the agent was known.
# Compounds. The drugs and investigational agents: inavolisib (NSC800729), alpelisib (NSC765974), duvelisib (NSC772469), copanlisib (NSC816437), ipatasertib (NSC767898), afuresertib (NSC778305), talazoparib (NSC767125), sapanisertib (NSC764658), selumetinib (NSC741078), tovorafenib (DAY101, NSC766906), vemurafenib (NSC761431), ravoxertinib (NSC781343), sotorasib (NSC818433), MRTX1133 (NSC 836407), abemaciclib (NSC 768073), palbociclib (NSC758247), venetoclax (NSC 766270), SY5609 (NSC837396), enzalutamide (NSC755605), and darolutamide (NSC825331), were obtained from the National Cancer Institute (NCI) Developmental Therapeutics Program Chemical Repository. The FDA-approved anticancer drug set is available from the NCI Developmental Therapeutics Program. […] The stock solutions were prepared in dimethyl sulfoxide (DMSO, Sigma-Aldrich, St. Louis, MO, cat. D2650) at 800-fold the tested concentration and stored at -70 degrees C prior to their use. All drugs and investigational agents were tested over a range starting from a high concentration at or near the clinical Cmax and decreasing in half-log increments. If the clinical Cmax for an agent had not been determined, the highest concentration tested was 10 microM.
# Cell Culture. All cells were maintained in an incubator at 37 degrees C and 5% CO2 with 95% humidity. The PDC lines were cultured according to standard operating procedures established by the NCI PDMR (https://pdmr.cancer.gov/sops/default.htm). All PDCs were thawed and cultured in Matrigel-coated flasks prepared with a working solution of 1X Ham's F-12 nutrient mix, without supplementation (Invitrogen, Waltham, MA, cat. 11765054), 100 U/mL penicillin-streptomycin (Invitrogen, cat. 15140122), and 2.5% Matrigel (Corning Inc., Corning, NY, cat. 354248) for the first three passages. The 354836-022-R-J1-PDC, 475296-252-R-J1-PDC, and 997726-040-R-J2-PDC lines were cultured in 6A media, which includes advanced DMEM/F-12 (Thermo Fisher Scientific, cat. 12634028), 10 mM HEPES (Thermo Fisher Scientific, cat. 15630080), 1X GlutaMAX supplement (Thermo Fisher Scientific, cat. 35050061), 0.1 mg/mL primocin (InvivoGen, San Diego, CA, cat. ant-pm-2), 10% defined fetal bovine serum, heat inactivated (HyClone Laboratories Inc., Logan, UT, cat. SH30070.03HI), 50% L-WRN conditioned media (ATCC, cat. CRL-3276), 1.25 mM N-Acetyl-L-cysteine (Sigma-Aldrich, cat. A9165), 10 mM nicotinamide (Sigma-Aldrich, cat. N0636), 1X B-27 supplement (Thermo Fisher Scientific, cat. 17504044), 1X N-2 supplement (Thermo Fisher Scientific, cat. 17502048), and 10 microM Y-27632 dihydrochloride (Tocris Bioscience, Bristol, United Kingdom, cat. 1254). The 624824-186-R-J2-PDC line was cultured in 6C/Colon 1B media, which includes all 6A media components plus 50 ng/mL human EGF recombinant protein (Thermo Fisher Scientific, cat. PHG0311). […]
# 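Further: spheroids exposed to agents for seven days before luminescence read.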
# 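Wherever viability, T/C is given: luminescent signal used as a stand-in for spheroid viability; percent viability relative to DMSO vehicle control wells taken as 100%.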
compound,measurement,setting,value
C[C@@H](NC(=O)c1ncnc(N)c1Cl)c1ncc(C(=O)Nc2cc(C(F)(F)F)c(Cl)cn2)s1 + CC(Nc1ncnc2nc[nH]c12)c1cc2cccc(Cl)c2c(=O)n1-c1ccccc1,IC50,second compound 0.0316 µM,> 10 µM
same,IC50,second compound 0.1 µM,> 10 µM
same,IC50,second compound 0.316 µM,> 10 µM
same,IC50,second compound 1 µM,> 10 µM
same,IC50,second compound 3.16 µM,> 10 µM
same,IC50,second compound 10 µM,> 10 µM
same,"viability, T/C","second compound 0.0316 µM, first compound 0.0316 µM",115%
same,"viability, T/C","second compound 0.0316 µM, first compound 0.1 µM",100%
same,"viability, T/C","second compound 0.0316 µM, first compound 0.316 µM",107%
same,"viability, T/C","second compound 0.0316 µM, first compound 1 µM",100%
same,"viability, T/C","second compound 0.0316 µM, first compound 3.16 µM",99.8%
same,"viability, T/C","second compound 0.0316 µM, first compound 10 µM",94.4%
same,"viability, T/C","second compound 0.1 µM, first compound 0.0316 µM",100%
same,"viability, T/C","second compound 0.1 µM, first compound 0.1 µM",101%
same,"viability, T/C","second compound 0.1 µM, first compound 0.316 µM",104%
same,"viability, T/C","second compound 0.1 µM, first compound 1 µM",107%
same,"viability, T/C","second compound 0.1 µM, first compound 3.16 µM",101%
same,"viability, T/C","second compound 0.1 µM, first compound 10 µM",107%
same,"viability, T/C","second compound 0.316 µM, first compound 0.0316 µM",96.8%
same,"viability, T/C","second compound 0.316 µM, first compound 0.1 µM",105%
same,"viability, T/C","second compound 0.316 µM, first compound 0.316 µM",92.5%
same,"viability, T/C","second compound 0.316 µM, first compound 1 µM",96.1%
same,"viability, T/C","second compound 0.316 µM, first compound 3.16 µM",98.8%
same,"viability, T/C","second compound 0.316 µM, first compound 10 µM",97.6%
same,"viability, T/C","second compound 1 µM, first compound 0.0316 µM",99.2%
same,"viability, T/C","second compound 1 µM, first compound 0.1 µM",94.4%
same,"viability, T/C","second compound 1 µM, first compound 0.316 µM",110%
same,"viability, T/C","second compound 1 µM, first compound 1 µM",92.8%
same,"viability, T/C","second compound 1 µM, first compound 3.16 µM",94.8%
same,"viability, T/C","second compound 1 µM, first compound 10 µM",83%
same,"viability, T/C","second compound 3.16 µM, first compound 0.0316 µM",97.1%
same,"viability, T/C","second compound 3.16 µM, first compound 0.1 µM",102%
same,"viability, T/C","second compound 3.16 µM, first compound 0.316 µM",104%
same,"viability, T/C","second compound 3.16 µM, first compound 1 µM",94.3%
same,"viability, T/C","second compound 3.16 µM, first compound 3.16 µM",93.8%
same,"viability, T/C","second compound 3.16 µM, first compound 10 µM",73.3%
same,"viability, T/C","second compound 10 µM, first compound 0.0316 µM",100%
same,"viability, T/C","second compound 10 µM, first compound 0.1 µM",94.7%
same,"viability, T/C","second compound 10 µM, first compound 0.316 µM",96.3%
same,"viability, T/C","second compound 10 µM, first compound 1 µM",83%
same,"viability, T/C","second compound 10 µM, first compound 3.16 µM",82.2%
same,"viability, T/C","second compound 10 µM, first compound 10 µM",61%
